In patent publication US20250221966A1, “RXFP1 AGONISTS” (BRISTOL-MYERS SQUIBB COMPANY, priority 2021, published 2025):

Molecular target: T1, human RXFP1 (Homo sapiens, UniProt Q9HBX9)
T1 construct: expressed in transfected cells
T1 sequence (Q9HBX9 1-757): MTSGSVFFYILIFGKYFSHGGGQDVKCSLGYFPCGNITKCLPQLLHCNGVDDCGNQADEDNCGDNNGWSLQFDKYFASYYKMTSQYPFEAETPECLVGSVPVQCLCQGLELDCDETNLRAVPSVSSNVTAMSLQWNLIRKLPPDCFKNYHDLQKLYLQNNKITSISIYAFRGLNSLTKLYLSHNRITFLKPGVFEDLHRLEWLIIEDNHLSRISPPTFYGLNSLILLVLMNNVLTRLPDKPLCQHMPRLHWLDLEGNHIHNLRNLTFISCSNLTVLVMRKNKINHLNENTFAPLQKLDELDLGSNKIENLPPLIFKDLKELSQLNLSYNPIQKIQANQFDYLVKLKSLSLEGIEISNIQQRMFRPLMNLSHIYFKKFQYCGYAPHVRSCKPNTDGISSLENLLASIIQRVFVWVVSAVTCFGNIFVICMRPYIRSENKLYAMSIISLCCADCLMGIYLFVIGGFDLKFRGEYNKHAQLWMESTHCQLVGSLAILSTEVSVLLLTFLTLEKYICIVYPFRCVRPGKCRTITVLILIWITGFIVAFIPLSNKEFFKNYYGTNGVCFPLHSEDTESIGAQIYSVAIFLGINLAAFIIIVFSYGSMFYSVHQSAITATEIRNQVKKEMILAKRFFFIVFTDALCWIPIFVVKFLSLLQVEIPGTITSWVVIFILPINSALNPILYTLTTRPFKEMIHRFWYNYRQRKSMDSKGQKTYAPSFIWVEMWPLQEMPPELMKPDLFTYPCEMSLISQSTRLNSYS
Test: RXFP1 cAMP assay (hRXFP1 HEK293 cAMP assay, HTRF)
Assay type: cell-based
Details: HEK293 cells stably expressing human RXFP1, 30 min at room temperature, read-out: cAMP hRXFP1 HEK293 Assay EC50
In short: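 hRXFP1-HEK293 stable line; HBSS + Ca/Mg, 20 mM HEPES, 0.05% BSA, 0.5 mM IBMX; cpd 0.010 nM–50 μM, 2% DMSO; 30 min RT; lysis, HTRF cAMP detection; 4-PL fit.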

Going from `COc1ccc(C2=NOC3CN(C(=O)OC(C)(C)C)CC23)cc1C(=O)N[C@H]1[C@@H](C(=O)Nc2ccc(F)c(C(F)(F)F)c2)[C@H]2CC[C@@H]1/C2=C\C1CC1` (mixture of isomers) [Example 434, tert-butyl 3-(3-(((1R,2R,3S,4R,Z)-7-(cyclopropylmethylene)-3-((4-fluoro-3-(trifluoromethyl)phenyl)carbamoyl)bicyclo[2.2.1]heptan-2-yl)carbamoyl)-4-methoxyphenyl)-3a,4,6,6a-tetrahydro-5H-pyrrolo[3,4-d]isoxazole-5-carboxylate] to `COc1ccc(C2=NOC(C(=O)OC(C)(C)C)C2)cc1C(=O)N[C@@H]1C2CCC(/C2=C/C2CC2)[C@@H]1C(=O)Nc1ccc(F)c(C(F)(F)F)c1` (some centres unmarked) [compound 386], the EC50 rises from 24 nM to 71 nM (3-fold). The first is the more potent here.

Going from `COc1ccc(C2=NOC3C(O)CCC23)cc1C(=O)N[C@H]1[C@@H](C(=O)Nc2ccc(F)c(C(F)(F)F)c2)[C@H]2CC[C@@H]1/C2=C\C1CC1` (single isomer, unassigned) [compound 483] to `COc1ccc(C2=NOC3CC(F)CC23)cc1C(=O)N[C@H]1[C@@H](C(=O)Nc2ccc(F)c(C(F)(F)F)c2)[C@H]2CC[C@@H]1/C2=C\C1CC1` (stereo partly drawn) [Example 427, (1R,2S,3R,4R,Z)-7-(cyclopropylmethylene)-N-(4-fluoro-3-(trifluoromethyl)phenyl)-3-(5-(5-fluoro-3a,5,6,6a-tetrahydro-4H-cyclopenta[d]isoxazol-3-yl)-2-methoxybenzamido)bicyclo[2.2.1]heptane-2-carboxamide], the EC50 rises from 7.3 nM to 54 nM (7.4-fold).

Going from `O=C(N[C@H]1[C@@H](C(=O)Nc2ccc(F)c(C(F)(F)F)c2)[C@H]2CC[C@@H]1/C2=C\C1CC1)c1cc(C2=NOC3CC(CO)CC23)ccc1F` (single isomer, unassigned) [compound 723] to `O=C(N[C@H]1[C@@H](C(=O)Nc2ccc(F)c(C(F)(F)F)c2)[C@H]2CC[C@@H]1/C2=C\C1CC1)c1cc(C2=NOC3COCC23)ccc1F` (single isomer, unassigned) [compound 514], the EC50 falls from 4980 nM to 17.2 nM (290-fold). The second is the more potent here.

`COc1cc(F)c(F)cc1C(=O)N[C@@H]1C2CCC(/C2=C/c2cccc(F)c2)[C@@H]1C(=O)Nc1ccc(F)c(C(F)(F)F)c1` (some centres unmarked) [compound 30] and `C=C(C)/C=C1\C2CCC1[C@H](C(=O)Nc1ccc(F)c(C(F)(F)F)c1)[C@@H]2NC(=O)c1cc(F)c(F)cc1OC` (some centres unmarked) [compound 43] are within 1.5-fold of each other in EC50: 55 nM for the first, 70 nM for the second.

`COc1ccc(-c2cc(CO)on2)cc1C(=O)N[C@H]1[C@@H](C(=O)Nc2ccc(F)c(C(F)(F)F)c2)[C@H]2CC[C@@H]1/C2=C\C1CC1` [Example 423, (1R,2S,3R,4R,Z)-7-(cyclopropylmethylene)-N-(4-fluoro-3-(trifluoromethyl)phenyl)-3-(5-(5-(hydroxymethyl)isoxazol-3-yl)-2-methoxybenzamido)bicyclo [2.2.1]heptane-2-carboxamide] and `COc1ccc(C2=NOC(CCO)C2)cc1C(=O)N[C@@H]1C2CCC(/C2=C/C2CC2)[C@@H]1C(=O)Nc1ccc(F)c(C(F)(F)F)c1` (some centres unmarked) [compound 398] are within 1.5-fold of each other in EC50: 28 nM for the first, 37 nM for the second.

Compared with `COc1ccc(-c2cc(C3=NOC(C(=O)O)C3)ccc2F)cc1C(=O)N[C@H]1[C@@H](C(=O)Nc2ccc(F)c(C(F)(F)F)c2)[C@H]2CC[C@@H]1/C2=C\C1CC1` (some centres unmarked) [compound 947], `COc1ccc(C2=NOC(C(C)O)C2)cc1C(=O)N[C@H]1[C@@H](C(=O)Nc2ccc(F)c(C(F)(F)F)c2)[C@H]2CC[C@@H]1/C2=C\C1CC1` (single isomer, unassigned) [compound 595] is 11-fold higher in EC50: 8.6 nM for the first, 92.7 nM for the second. The first is the more potent here.

`COc1ccc(C2=NOC3COCC23)cc1C(=O)N[C@@H]1C2CCC(/C2=C/C2CC2)[C@@H]1C(=O)Nc1ccc(F)c(OC(F)(F)F)c1` (some centres unmarked) [compound 973] and `COc1ccc(C2=NO[C@H]3COC[C@@H]23)cc1C(=O)N[C@H]1[C@@H](C(=O)Nc2ccc(F)c(C(F)(F)F)c2)[C@H]2CC[C@@H]1/C2=C\CCC1CC1` [compound 839] are within 1.5-fold of each other in EC50: 5.8 nM for the first, 4.4 nM for the second.

`COc1ccc(-c2cccc(C(=O)O)c2OC)cc1C(=O)N[C@H]1[C@@H](C(=O)Nc2ccc(F)c(C(F)(F)F)c2)[C@H]2CC[C@@H]1C2=C(C)C` [compound 101] and `COc1ccc(-c2cnc(C)nc2)cc1C(=O)N[C@H]1[C@@H](C(=O)Nc2ccc(F)c(C(F)(F)F)c2)[C@H]2CC[C@@H]1C2=C(C)C` [compound 98] are within 1.5-fold of each other in EC50: 580 nM for the first, 510 nM for the second.

`COc1ccc(C2=NOC3COCC23)cc1C(=O)N[C@H]1[C@@H](C(=O)NC2(CO)CCCC2)[C@H]2CC[C@@H]1/C2=C\C1CC1` (some centres unmarked) [compound 651] and `COc1ccc(C2=NOC3COCC23)cc1C(=O)N[C@H]1[C@@H](C(=O)NCCc2cccc(C)c2)[C@H]2CC[C@@H]1/C2=C\C1CC1` (some centres unmarked) [compound 650] are within 1.5-fold of each other in EC50: 269 nM for the first, 262 nM for the second.

First: COc1ccc(-c2cnc3n2CC(O)CC3)cc1C(=O)N[C@H]1[C@@H](C(=O)Nc2ccc(F)c(C(F)(F)F)c2)[C@H]2CC[C@@H]1/C2=C\C1CC1 (some centres unmarked) [compound 755]
Second: COc1ncc(-c2ccc(OC)c(C(=O)N[C@@H]3C4CCC(/C4=C/C4CC4)[C@@H]3C(=O)Nc3ccc(F)c(C(F)(F)F)c3)c2)cn1 (some centres unmarked) [compound 279]
The EC50 of the first is 3-fold lower: 5 nM for the first, 15 nM for the second.

Compared with `COc1ccc(-c2cc(C(=O)O)ccc2F)cc1C(=O)N[C@@H]1C2CCC(/C2=C/C2CC2)[C@@H]1C(=O)NC1CC2(CCC2)C1` (some centres unmarked) [compound 301], `COc1ccc(C2=NOC3CS(=O)(=O)CC23)cc1C(=O)N[C@@H]1C2CCC(/C2=C/C2CC2)[C@@H]1C(=O)Nc1ccc(F)c(C(F)(F)F)c1` (single isomer, unassigned) [compound 444] is 2.1-fold lower in EC50: 850 nM for the first, 410 nM for the second.

Compared with `COc1ccc(C2=NOC3COCC23)cc1C(=O)N[C@H]1[C@@H](C(=O)N[C@H](C)c2ccccc2C(F)(F)F)[C@H]2CC[C@@H]1/C2=C\C1CC1` (some centres unmarked) [compound 510], `COc1c(F)cc(C2=NOC3COCC23)cc1C(=O)N[C@H]1[C@@H](C(=O)Nc2ccc(F)c(C(F)(F)F)c2)[C@H]2CC[C@@H]1/C2=C\C1CC1` (some centres unmarked) [compound 791] is 19-fold lower in EC50: 15.2 nM for the first, 0.8 nM for the second. The second is the more potent here.

`COc1ccc(C2=NO[C@H]3C[C@H](CO)C[C@@H]23)cc1C(=O)N[C@H]1[C@@H](C(=O)NC23CC(C)(C2)C3)[C@H]2CC[C@@H]1/C2=C\C[C@@H](O)C(F)(F)F` [compound 831] and `COc1cc(C)c(C2=NOC3CC(CO)CC23)cc1C(=O)N[C@H]1[C@@H](C(=O)Nc2ccc(F)c(C(F)(F)F)c2)[C@H]2CC[C@@H]1/C2=C\C1CC1` (some centres unmarked) [compound 738] are within 1.5-fold of each other in EC50: 3.5 nM for the first, 3.3 nM for the second.

Compared with `COC(=O)c1cnn2cc(-c3ccc(OC)c(C(=O)N[C@@H]4C5CCC(/C5=C/C(F)(F)F)[C@@H]4C(=O)Nc4ccc(F)c(C(F)(F)F)c4)c3)ccc12` (some centres unmarked) [compound 313], `COc1ccc(-c2cc(C(F)(F)F)cnc2F)cc1C(=O)N[C@@H]1C2CCC(/C2=C/C2CC2)[C@@H]1C(=O)Nc1ccc(F)c(C(F)(F)F)c1` (some centres unmarked) [compound 282] is 3.6-fold lower in EC50: 90 nM for the first, 25 nM for the second. The second is the more potent here.

Going from `COc1ccc(-c2ccc(C(=O)N(C)C)cc2F)cc1C(=O)N[C@@H]1C2CCC(/C2=C/c2ccccc2)[C@@H]1C(=O)Nc1ccc(F)c(C(F)(F)F)c1` (some centres unmarked) [compound 195] to `COc1ccc(-c2ccc(C(=O)O)cc2)cc1C(=O)N[C@@H]1C2CCC(/C2=C/c2ccccc2)[C@@H]1C(=O)Nc1ccc(F)c(C(F)(F)F)c1` (some centres unmarked) [Example 79], the EC50 falls from 29 nM to 11 nM (2.6-fold).

Compared with `COc1ccc(-c2cc(C(OC(=O)NC3COC3)C(F)(F)F)ccc2F)cc1C(=O)N[C@@H]1C2CCC(/C2=C/C2CC2)[C@@H]1C(=O)Nc1ccc(F)c(C(F)(F)F)c1` (some centres unmarked) [compound 218], `COc1ccc(-c2cc(C(OC(=O)Nc3cccc(F)c3)C(F)(F)F)ccc2F)cc1C(=O)N[C@@H]1C2CCC(/C2=C/C2CC2)[C@@H]1C(=O)Nc1ccc(F)c(C(F)(F)F)c1` (some centres unmarked) [compound 228] is 1.5-fold higher in EC50: 2 nM for the first, 3 nM for the second.

`COc1ccc(-c2cc(C3=NOC4CC(CO)CC34)ccc2F)cc1C(=O)N[C@H]1[C@@H](C(=O)Nc2ccc(F)c(C(F)(F)F)c2)[C@H]2CC[C@@H]1/C2=C\C1CCCC1` (some centres unmarked) [compound 950] and `O=C(N[C@H]1[C@@H](C(=O)Nc2ccc(F)c(C(F)(F)F)c2)[C@H]2CC[C@@H]1/C2=C\C1CC1)c1cc(C2=NOC3CC(CO)CC23)ccc1F` (single isomer, unassigned) [compound 473] are the same in EC50: 4.9 nM for the first, 4.9 nM for the second.

First: COc1ccc(N2CCC(NC(=O)C3CCOCC3)C2)cc1C(=O)N[C@@H]1C2CCC(/C2=C/C(F)(F)F)[C@@H]1C(=O)Nc1ccc(F)c(C(F)(F)F)c1 (single isomer, unassigned) [compound 336]
Second: COc1ccc(-c2cc([C@H](OC(=O)NC3CCC3)C(F)(F)F)ccc2F)cc1C(=O)N[C@@H]1C2CCC(/C2=C/CCC(F)(F)F)[C@@H]1C(=O)Nc1ccc(F)c(C(F)(F)F)c1 (some centres unmarked) [compound 923]
The EC50 of the first is 410-fold higher: 1930 nM for the first, 4.7 nM for the second.

Compared with `COc1cc(C(=O)N[C@H]2[C@@H](C(=O)Nc3ccc(F)c(C(F)(F)F)c3)[C@H]3CC[C@@H]2/C3=C\C2CC2)cc(C2=NOC3COCC23)c1` (single isomer, unassigned) [compound 696], `C[C@@H](NC(=O)[C@@H]1[C@H](NC(=O)c2cc(C3=NOC4CC(CO)CC34)cc(F)c2OCC2CC2)[C@@H]2CC[C@H]1/C2=C/C1CC1)C1(C)CC1` (some centres unmarked) [compound 758] is 1100-fold lower in EC50: 966 nM for the first, 0.9 nM for the second. The second is the more potent here.
